From US11427548B2 (Arvinas Operations, Inc., priority 2015, dated 2022)
“Also recorded” adds a separate entry of the source. Read-outs that look alike come from different tables or passages of the source.

Experiments:
VCaP cells = experiment: VCaP cell proliferation assay (Cell Titer Glo), GI50; type: cell-based
Method in brief: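 VCaP cells at 7,500/well were androgen-depleted for at least 3 days in phenol red-free RPMI with 5% charcoal-stripped FBS, then dosed with PROTACs plus 0.1 nM R1881. Growth was read by CellTiter Glo luminescence against a baseline taken on the day of dosing, giving GI50.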

VCaP xenograft = experiment: Tumor growth inhibition in VCaP xenograft model; type: in vivo; conditions: VCaP cells s.c. in castrated CB17 scid mice; enzalutamide PO, QD, 30 mpk; Example 163 IP, QD, 30, 10 and 3 mpk
From the text: FIG. 6. Tumor growth inhibition in VCaP xenograft model. VCaP cells were implanted into CB17 scid mice subcutaneously. Once the tumors were palpable, the mice were castrated, leading to temporary tumor stasis.
7. Tumor Growth Inhibition in VCaP Xenograft Model.
VCaP cells were implanted into CB17 scid mice subcutaneously. Once the tumors were palpable, the mice were castrated, leading to temporary tumor stasis.

Androgen Receptor [1] = target: T1, Androgen Receptor (Homo sapiens, UniProt P10275); experiment: Androgen Receptor ELISA assay (PathScan AR ELISA) in VCaP cells: AR degradation, Dmax and DC50; type: cell-based; conditions: for Dmax: VCaP, read-out: VCaP Dmax (%); for DC50: read-out: VCaP DC50
T1 construct: endogenous in cells; host or cells: VCaP cells
T1 sequence (P10275 1-920): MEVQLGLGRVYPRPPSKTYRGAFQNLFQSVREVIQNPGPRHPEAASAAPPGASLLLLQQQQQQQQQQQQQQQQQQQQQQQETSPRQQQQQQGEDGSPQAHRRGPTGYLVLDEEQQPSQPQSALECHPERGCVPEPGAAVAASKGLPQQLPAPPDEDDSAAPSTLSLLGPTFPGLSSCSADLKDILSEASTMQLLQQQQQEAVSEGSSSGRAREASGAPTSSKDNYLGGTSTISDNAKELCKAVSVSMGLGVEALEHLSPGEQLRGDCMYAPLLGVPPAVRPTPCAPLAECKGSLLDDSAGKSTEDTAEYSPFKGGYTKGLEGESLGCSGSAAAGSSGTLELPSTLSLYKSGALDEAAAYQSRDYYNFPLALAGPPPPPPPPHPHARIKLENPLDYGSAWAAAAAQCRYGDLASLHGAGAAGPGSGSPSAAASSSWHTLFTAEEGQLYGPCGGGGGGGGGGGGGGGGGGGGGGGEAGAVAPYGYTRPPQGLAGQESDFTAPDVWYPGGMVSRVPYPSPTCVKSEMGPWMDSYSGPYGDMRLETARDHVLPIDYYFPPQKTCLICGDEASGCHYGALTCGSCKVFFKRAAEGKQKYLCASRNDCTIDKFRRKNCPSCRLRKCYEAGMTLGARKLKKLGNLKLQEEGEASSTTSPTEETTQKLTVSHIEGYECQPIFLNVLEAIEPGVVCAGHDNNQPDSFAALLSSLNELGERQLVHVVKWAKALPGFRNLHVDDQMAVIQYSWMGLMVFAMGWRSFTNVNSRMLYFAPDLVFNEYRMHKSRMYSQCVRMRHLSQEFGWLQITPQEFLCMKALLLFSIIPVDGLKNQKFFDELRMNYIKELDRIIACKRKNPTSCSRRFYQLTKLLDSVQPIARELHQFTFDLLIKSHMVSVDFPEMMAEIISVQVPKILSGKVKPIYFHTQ
Method in brief: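 VCaP cells, 30,000/well, grown ≥3 days in phenol red-free RPMI with 5% charcoal-stripped FBS; compound added in 0.1% DMSO with 0.1 nM R1881, 7 half-log doses, 24 h. Lysate AR quantified by PathScan sandwich ELISA, HRP/TMB read at 450 nm, giving DC50 and Dmax.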

C57B6 mouse model = experiment: Prostate involution in C57B6 mouse model; type: in vivo; conditions: 12-week old male C57BL/6 mice; IP, QD, 1 and 3 mpk; 10 days
From the text: FIG. 5. Prostate involution in C57B6 mouse model.
6. Prostate Involution in C57B6 Mouse Model.

[2] = PROTAC prodrug oral pharmacokinetics in CD-1 mice; type: in vivo; conditions: male, mouse, plasma, 10 mg/kg, 10 mpk PO; for AUC: read-out: Plasma Exposure Prodrug AUC; for Cmax: read-out: Plasma Exposure Prodrug Cmax
Experimental: (§1) 9. PROTAC Prodrug Oral Pharmacokinetics and PROTAC Subcutaneous Phamacokinetics.
(§2) Representative Pharmacokinetic Procedure
(§3) Male CD-1 mice (6-8 weeks old, weighing 20-30 g, 3 per study) with free access to food and water were administered with the test article at 10 mg/kg either by oral gavage or sub-cutaneous injection in the formulation specified in tables 20 and 21, at 10 mL/kg.
(§4) Approximately 0.04 mL blood samples were collected from the dorsal metatarsal vein serially at 0.25, 0.5, 1, 2, 4, 8 and 24 h timepoints; heparin was used as the anticoagulant. The samples were centrifuged at 4000 g for 5 min at 4° C. then stored at −75° C. prior to analysis.
(§5) The plasma samples were analysed via an LC/MS/MS method quantitating for unchanged, administered test article, and/or a derivative species as appropriate. WinNonlin (Phoenix™) was used for the pharmacokinetic calculations and modeling, to generate parameters such as Cmax and AUC.

Androgen Receptor [3] = target: T2, Androgen Receptor (Homo sapiens, UniProt P10275+P40337, T878A); experiment: Androgen Receptor ELISA assay (PathScan AR ELISA) in LNCaP cells: AR degradation, Dmax and DC50; type: cell-based
T2 construct: Compounds have been evaluated in this assay in LNCaP and/or VCaP cells utilizing similar protocols; endogenous in cells; host or cells: LNCaP cells
T2 sequence (P10275 whole entry T878A): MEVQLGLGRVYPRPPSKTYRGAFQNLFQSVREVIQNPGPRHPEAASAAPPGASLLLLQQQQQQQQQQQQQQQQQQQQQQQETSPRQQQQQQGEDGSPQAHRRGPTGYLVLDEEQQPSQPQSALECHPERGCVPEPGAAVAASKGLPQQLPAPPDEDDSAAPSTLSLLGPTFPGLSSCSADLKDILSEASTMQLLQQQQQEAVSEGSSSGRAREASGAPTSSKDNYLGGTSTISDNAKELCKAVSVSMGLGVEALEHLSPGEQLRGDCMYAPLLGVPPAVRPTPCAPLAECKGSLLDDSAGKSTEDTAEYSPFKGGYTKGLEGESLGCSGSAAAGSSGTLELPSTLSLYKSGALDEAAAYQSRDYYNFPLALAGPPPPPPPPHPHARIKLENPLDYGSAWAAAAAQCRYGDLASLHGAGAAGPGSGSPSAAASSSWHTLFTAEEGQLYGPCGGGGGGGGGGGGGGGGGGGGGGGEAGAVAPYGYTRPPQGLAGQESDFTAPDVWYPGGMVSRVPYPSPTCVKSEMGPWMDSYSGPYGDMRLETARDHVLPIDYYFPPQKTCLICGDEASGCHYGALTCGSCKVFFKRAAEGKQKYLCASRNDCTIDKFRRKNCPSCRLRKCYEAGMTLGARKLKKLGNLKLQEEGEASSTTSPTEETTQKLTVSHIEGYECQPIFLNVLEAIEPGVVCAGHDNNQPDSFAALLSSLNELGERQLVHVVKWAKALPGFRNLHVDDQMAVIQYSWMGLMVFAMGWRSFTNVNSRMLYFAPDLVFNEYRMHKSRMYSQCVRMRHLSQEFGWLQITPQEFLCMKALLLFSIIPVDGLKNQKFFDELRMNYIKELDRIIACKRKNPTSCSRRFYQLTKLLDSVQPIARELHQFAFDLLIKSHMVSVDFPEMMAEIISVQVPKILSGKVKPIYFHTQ
T2 sequence (P40337 whole entry): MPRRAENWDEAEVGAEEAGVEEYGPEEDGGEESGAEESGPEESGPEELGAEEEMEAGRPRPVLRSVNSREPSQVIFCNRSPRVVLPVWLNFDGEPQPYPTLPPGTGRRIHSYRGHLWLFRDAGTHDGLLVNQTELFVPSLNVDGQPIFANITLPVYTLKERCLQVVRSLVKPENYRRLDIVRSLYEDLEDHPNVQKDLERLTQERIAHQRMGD
T2 sequence (Q15369 whole entry partner): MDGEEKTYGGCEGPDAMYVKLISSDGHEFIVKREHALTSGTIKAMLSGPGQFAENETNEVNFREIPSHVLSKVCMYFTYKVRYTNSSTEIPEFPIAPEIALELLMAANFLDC
T2 sequence (Q15370 whole entry partner): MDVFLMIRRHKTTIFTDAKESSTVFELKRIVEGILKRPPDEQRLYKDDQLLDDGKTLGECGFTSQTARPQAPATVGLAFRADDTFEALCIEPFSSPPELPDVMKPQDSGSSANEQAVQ

[4] = test system: LNCaP cells transduced with AR F876L construct; experiment: Anti-proliferation in LNCaP F876L (CellTiterGlo); type: cell-based; conditions: Charcoal Stripped Serum media, indicated doses for 7 days
Experimental: FIG. 3. Anti-proliferation in LNCaP F876L. […] LNCaP cells transduced with AR F876L construct were cultured in Charcoal Stripped Serum containing media.
4. Anti-Proliferation in LNCaP F876L.
LNCaP cells transduced with AR F876L construct were cultured in Charcoal Stripped Serum containing media. […] CellTiterGlo reagent (Promega) was employed to assess proliferation.

AR = target: T3, AR (Homo sapiens, UniProt P10275+P40337, T878A); experiment: AR degradation of PROTAC is E3 ligase dependent (LNCaP cells); type: cell-based
T3 construct: Compounds have been evaluated in this assay in LNCaP and/or VCaP cells utilizing similar protocols; endogenous in cells; host or cells: LNCaP cells
T3 sequence (P10275 whole entry T878A): as the sequence (P10275 whole entry T878A) above
T3 sequence (P40337 whole entry): as the sequence (P40337 whole entry) above
T3 sequence (Q15369 whole entry partner): as the sequence (Q15369 whole entry partner) above
T3 sequence (Q15370 whole entry partner): as the sequence (Q15370 whole entry partner) above
From the text: FIG. 7A and FIG. 7B. AR degradation of PROTAC is E3 ligase dependent.
8. AR Degradation of PROTAC is E3 Ligase Dependent.

[5] = PROTAC subcutaneous pharmacokinetics in CD-1 mice; type: in vivo; conditions: male, plasma, CD-1 Mouse, 10 mg/kg SC dose, vehicle ESD-1
Experimental: as §1, §2, §3, §4, §5

[6] = vehicle ESD-4, prodrug measured
[7] = vehicle ESP-4, prodrug measured

## CNC(=O)c1ccc(N2C(=S)N(c3ccc(C#N)c(C(F)(F)F)c3)C(=O)C2(C)C)cc1F [enzalutamide, reference compound]
VCaP cells; LNCap and VCaP cell systems, increasing concentrations of AR agonist R1881 and cells containing the AR F876L mutation
  anti-proliferative activity: inactive
VCaP xenograft
  Tumor growth inhibition: Tumor growth inhibition was observed

## Cc1ncsc1-c1ccc(CNC(=O)[C@@H]2C[C@@H](O)CN2C(=O)[C@@H](NC(=O)COCCCCOc2ccc(C(=O)N[C@H]3C(C)(C)[C@H](Oc4ccc(C#N)c(Cl)c4)C3(C)C)cc2)C(C)(C)C)cc1 [Example 163, (2S,4R)-1-[(2S)-3,3-dimethyl-2-{2-[4-(4-{[trans-3-(3-chloro-4-cyanophenoxy)-2,2,4,4-tetramethylcyclobutyl]carbamoyl}phenoxy)butoxy]acetamido}butanoyl]-4-hydroxy-N-{[4-(4-methyl-1,3-thiazol-5-yl)phenyl]methyl}pyrrolidine-2-carboxamide]
Androgen Receptor [1]; highest percentage of Androgen Receptor degradation observed, VCaP cells (Table 32)
  Dmax: > 71%
Androgen Receptor [1]; concentration that caused 50% Androgen Receptor degradation, VCaP cells (Table 32)
  DC50: < 50 nM
VCaP cells; Homo sapiens, VCaP cells, 0.1 nM R1881, Table 37, read-out: GI50, Inhibition of VCaP Proliferation
  GI50: ≤ 50 nM
C57B6 mouse model
  prostate weights (prostate involution): significant reduction in prostate weights; also recorded: significant prostate involution
VCaP xenograft
  Tumor growth inhibition: Tumor growth inhibition was observed

## CC(=O)O[C@@H]1C[C@@H](C(=O)N[C@@H](C)c2ccc(-c3scnc3C)cc2)N(C(=O)[C@@H](NC(=O)COCCCCCNc2ccc(C(=O)N[C@H]3C(C)(C)[C@H](Oc4ccc(C#N)c(Cl)c4)C3(C)C)cc2)C(C)(C)C)C1 [Example 469]
Androgen Receptor [1]; VCaP cells, Table 35
  DC50: < 50 nM
  Dmax: > 71%
[2]; [6]
  AUC: 353 ng·h/mL
  Cmax: 181 ng/mL

## Cc1ncsc1-c1ccc(CNC(=O)[C@@H]2C[C@@H](O)CN2C(=O)[C@@H](NC(=O)COCCCOCCCCCOc2ccc(N3C(=S)N(c4ccc(C#N)c(C(F)(F)F)c4)C(=O)C3(C)C)cc2)C(C)(C)C)cc1 [Example 1, (2S,4R)-1-((S)-2-(2-(3-(5-(4-(3-(4-cyano-3-(trifluoromethyl)phenyl)-5,5-dimethyl-4-oxo-2-thioxoimidazolidin-1-yl)phenoxy)pentyloxy)propoxy)acetamido)-3,3-dimethylbutanoyl)-4-hydroxy-N-(4-(4-methylthiazol-5-yl)benzyl)pyrrolidine-2-carboxamide]
Androgen Receptor [1]
  Dmax: 51 to 70%
Androgen Receptor [1]; concentration that caused 50% Androgen Receptor degradation, VCaP cells
  DC50: < 50 nM
Androgen Receptor [3]; concentration that caused 50% Androgen Receptor degradation
  DC50: < 50 nM
Androgen Receptor [3]; highest percentage of Androgen Receptor degradation observed
  Dmax: > 71%
[4]
  proliferation / agonist activity in LNCaP F876L cells: did not exhibit agonist activity; also recorded: Anti-proliferation in LNCaP F876L cells observed
AR; 24 hours, 10 uM compound B
  AR degradation activity in the presence of VHL E3 ligase ligand compound B: greatly diminishes the AR degradation activity
AR; PROTAC versus inactive epimer analog unable to bind VHL E3 ligase
  degradation of AR: significant degradation of AR
[5]; read-out: Plasma Exposure AUC0-24
  AUC(0-t): 15600 ng·h/mL
[5]; read-out: Plasma Exposure Cmax
  Cmax: 1150 ng/mL

## Cc1ncsc1-c1ccc([C@H](C)NC(=O)[C@@H]2C[C@@H](O)CN2C(=O)[C@@H](NC(=O)COCCCCCNc2ccc(C(=O)N[C@H]3C(C)(C)[C@H](Oc4ccc(C#N)c(C(F)(F)F)n4)C3(C)C)cc2)C(C)(C)C)cc1 [Example 464]
Androgen Receptor [1]; VCaP cells, Table 35
  DC50: > 501 nM
  Dmax: > 71%
[2]; [7]
  AUC: 118 ng·h/mL
  Cmax: 48 ng/mL
